Laboratory results: patent US20040157800A1, “Ascorbyl derivatives of carnitines and cosmetic compositions containing same” (priority 2001, published 2004)
Structures can show the parent of a compound that is named as a salt.

Test: Weight increase, appearance and flowability after exposure to humidity (hygroscopicity)
Assay type: physicochemical
Conditions: for Appearance / Weight increase (%): 60% relative humidity at 25° C. for 42 hours; for Hygroscopicity of the solid (in words): isolated crystalline solid; for Flowability: time needed by a 10-gram sample to pass through a funnel of 4 mm diameter, after 60% relative humidity at 25° C. for 42 hours
Description: In the following Table 1, the weight increase (%) and the flowability of the compounds of the invention are compared with those of L-carnitine and acetyl L-carnitine inner salts following exposure of the compounds to 60% relative humidity at 25° C. for 42 hours. Reference method:
Pharmaeuropa November 1996.

Question: For `CC(=O)O[C@H](CC(=O)[O-])C[N+](C)(C)C` [acetyl L-carnitine Inner salt, acetyl L-carnitine inner salt, reference compound], which Appearance is on record?
Answer: deliquescent

Question: And the “Weight increase (%)” value?
Answer: 20%

Question: What does the source list for `C[N+](C)(C)C[C@H](O)CC(=O)[O-]` [L-carnitine Inner salt, L-carnitine inner salt, reference compound]?
Answer: Appearance: deliquescent; Weight increase (%): 19%

Question: Which Appearance does the source give for “L-Carnitine Magnesium Ascorbyl Phosphate [Example 1]” here?
Answer: no variation

Question: And the “Weight increase (%)” value?
Answer: 0.12%

Question: What about the “Hygroscopicity of the solid (in words)” value of the same compound?
Answer: non-hygroscopic

Question: And the Flowability?
Answer: 5 s

Question: What does the source list for “Acetyl L-Carnitine Magnesium Ascorbyl Phosphate [Example 2]”?
Answer: Appearance: no variation; Weight increase (%): 0.14%; Hygroscopicity of the solid (in words): non-hygroscopic; Flowability: 6 s
